# Reference: ChEMBL document CHEMBL1131662, “Synthesis and structure-activity relationship of potent bicyclic lactam thrombin inhibitors” (Bioorg Med Chem Lett, 1999)
# Target: T1, Prothrombin (Homo sapiens, UniProt P00734)
# Assay: In vitro inhibitory activity against human thrombin.( Fast moving component on HPLC)
row,Structure (SMILES),Ki
1,C[C@]12CC[C@@H](CCCc3ccccc3)C(=O)N1[C@H](C(=O)NC(CCCN=C(N)N)C(=O)c1nccs1)CS2 (stereo not given in full),2 nM

# Target: T1, Prothrombin
# Assay: In vitro inhibitory activity against human thrombin.
row,Structure (SMILES),Ki
1,C[C@]12CC[C@H](CCCc3ccccc3)C(=O)N1[C@H](C(=O)NC(CCCN=C(N)N)C(=O)c1nccs1)CS2 (stereo not given in full),100 nM
2,C[C@]12CC[C@H](c3ccc4nc(C(F)(F)F)ccc4c3)C(=O)N1[C@H](C(=O)NC(CCCN=C(N)N)C(=O)c1nccs1)CS2 (stereo not given in full),150 nM
3,C[C@]12CC[C@H](CCc3ccccc3)C(=O)N1[C@H](C(=O)NC(CCCN=C(N)N)C(=O)c1nc3ccccc3s1)CS2 (stereo not given in full),550 nM
4,NC(N)=NCCCC(NC(=O)[C@@H]1CS[C@H]2CC[C@H](Cc3ccccc3)C(=O)N21)C(=O)c1nc2ccccc2s1 (stereo not given in full),1110 nM

# Now from value to compound:
row,Ki,Structure (SMILES)
1,10 nM,C[C@]12CC[C@@H](c3ccc4nc(C(F)(F)F)ccc4c3)C(=O)N1[C@H](C(=O)NC(CCCN=C(N)N)C(=O)c1nccs1)CS2 (stereo not given in full)
2,235 nM,C[C@]12CC[C@@H](CCc3ccccc3)C(=O)N1[C@H](C(=O)NC(CCCN=C(N)N)C(=O)c1nc3ccccc3s1)CS2 (stereo not given in full)
3,18 nM,C[C@]12CC[C@@H](c3ccc4nc(C(F)(F)F)ccc4c3)C(=O)N1[C@H](C(=O)NC(CCCN=C(N)N)C(=O)c1nc3ccccc3s1)CS2 (stereo not given in full)
4,18 nM,C[C@]12CC[C@@H](Cc3ccccc3)C(=O)N1[C@H](C(=O)NC(CCCN=C(N)N)C(=O)c1nc3ccccc3s1)CS2 (stereo not given in full)

# Target: T1, Prothrombin
# Assay: In vitro inhibitory activity against human thrombin.(Slow moving component on HPLC)
row,Structure (SMILES),Ki
1,C[C@]12CC[C@@H](CCCc3ccccc3)C(=O)N1[C@H](C(=O)NC(CCCN=C(N)N)C(=O)c1nccs1)CS2 (stereo not given in full),6 nM
